For assay [1], the system named is hyperalgesia to mechanical stimulation in STZ models. The settings on record: direct administration to the anterior cingulate cortex; Non Patent Literature 16; cited from earlier work.
The subject of assay [2] is AMPA receptor. The assay can be described thus: AMPA-induced intraneuronal calcium entry-suppressing action, primary culture of embryonic rat cerebral cortex neurons. Format: cell-based. The settings on record: AMPA-induced increase of intracellular calcium, rat cortical neurons; read-out: IC50 for AMPA inhibition. From the text:
[Test Example 1] AMPA-Induced Intraneuronal Calcium Entry-Suppressing Action
With regard to the AMPA receptor inhibitory action of the compounds, AMPA-induced intraneuronal calcium entry-suppressing action was examined using a primary culture system of embryonic rat cerebral cortex neurons.
<Culture conditions> Whole fetuses were removed from the uteri of Wistar rats at embryonic day 18 (Charles River Japan) anesthetized with isoflurane. Whole brains were removed from the whole fetuses, and the cerebral cortex was separated in Leibovitz's L-15 medium, or Hanks balanced salt solution containing 20% fetal bovine serum. The resulting material was treated with trypsin/DNase solution at 37° C. for 45 to 60 minutes. After the serum was added to stop the trypsin reaction, the resulting material was centrifuged at 1200 to 1500 rpm for 3 to 5 minutes. After the supernatant was removed, Neurobasal medium (containing 2% B-27 supplement and the like; hereinafter “Neurobasal medium”) was added, and the cells were uniformly dispersed by gently pipetting. The cell suspension was slightly stirred, and then filtered through a nylon mesh filter. Viable cells were counted using a hemocytometer, and diluted with Neurobasal medium to 8 to 10×10^5 cells/mL. […]
On the day of the assay, the medium was removed and replaced with a calcium measurement solution containing 5 to 10 μmol/L of Fura 2-AM (140 mmol/L sodium chloride, 5 mmol/L potassium chloride, 2 mmol/L magnesium chloride, 3 mmol/L calcium chloride, 24 mmol/L D(+)-glucose, 10 mmol/L HEPES, 1 μmol/L MK-801, pH 7.4), and the cells were treated in a CO2 incubator (5% CO2, 37° C.) for 1 to 2 hours. […] The plates were subsequently placed on the Fluorescence Drug Screening System 6000 (Hamamatsu Photonics K.K.). […] Changes in calcium concentration were measured as the changes in fluorescence intensity at excitation wavelengths of 340 nm and 380 nm (measurement wavelength: 540 nm). The rate of change of the intracellular calcium concentration was calculated in accordance with the following equation: […]

Assay [3] concerns tremor induced by harmaline. The assay can be described thus: Rat harmaline model (balance disorder / tremor score). Format: in vivo. The settings on record: for Tremor score: 20 min before harmaline 20 mg/kg i.p., score 0-3. The method, then: [Test Example 2] Rat Harmaline Model
To confirm tremor-suppressing effect, a harmaline model test with rats was conducted. In this model, balance disorder observed after administration of harmaline serves as an evaluation index (Neuroscience Letter, 590, p 84-90 (2015)).
Four-week-old male SD rats (Charles River) were subjected to the test (two treatments in total, n=5 in each treatment). Balance disorder (one of tremor symptoms) induced by harmaline was used as an evaluation index (the above literature).
The compound was prepared for oral administration in 0.4% methylcellulose/5% Cremophor/5% 1 N hydrochloric acid/10% dimethylsulfoxide solution to reach an administration volume of 5 mL/kg, and orally administered. As a negative control, only the mixed solvent without the compound (Vehicle) was used. Harmaline (Sigma-Aldrich Co. LLC) was diluted with physiological saline (Otsuka Pharmaceutical Co., Ltd.) to prepare 4 mg/mL harmaline solution. Twenty minutes after administration of the compound, the 4 mg/mL harmaline solution was intraperitoneally administered (dose: 20 mg/kg). Balance disorder was observed during 10 minutes from 5 minutes to 15 minutes after the administration of harmaline, and scored in four grades of 0, 1, 2, and 3.
The results were represented as mean±standard deviation. Dunnett's multiple comparison test was used for statistical analysis, and results with p<0.05 were determined to be of statistically significant difference.

For assay [4], the system named is pain induced by STZ. The assay can be described thus: Rat STZ model, von Frey test. Format: in vivo. How it is done: [Test Example 3] Rat STZ Model
To confirm analgesic effect in an SFN model, an STZ model test with rats was conducted. The effect of the compound on pain induced 2 weeks after administration of STZ was examined.
Seven-week-old male SD rats (Charles River) were used for the test. To STZ aliquoted in advance into shading bottles, ice-cooled physiological saline (Otsuka Pharmaceutical Factory, Inc.) was added to reach 65 mg/mL, and the resultant was gently inversion-mixed with ice-cooling to dissolve STZ. After dissolving, the resultant was stored under ice-cooling, and used within 20 minutes from the initiation of preparation. About 20 hours after fasting, the animals were anesthetize with isoflurane, and the 65 mg/mL STZ solution was administered to each animal from the tail vein with a volume of […] over about 15 seconds by using a 1 mL syringe and a 26G injection needle. After 14 days after the administration of STZ, body weight and pain response before drug administration were measured (see description below on pain response), and animals for each of which the 50% response threshold to mechanical stimulation was 6 g or lower in von Frey test were selected, and grouped so as to provide no difference in 50% response thresholds and body weight among groups.
The compound was prepared for oral administration in DMSO:1 mol/L HCl:Cremophor EL:0.5% methylcellulose=10:5:5:80 to reach an administration volume of 10 mL/kg, and orally administered. As a negative control, only the mixed solvent without the compound (Vehicle) was used.
Evaluation of pain response was performed by using von Frey test under blind conditions, without involving any measurer for pain response in grouping and administration. Measurement of 50% response thresholds by von Frey test was performed in accordance with a method by Chaplan et al. (J Neurosci Methods 1994; 53: 55-63) using von Frey filaments. Each animal was put in a measurement cage with a floor of a metal mesh about 30 minutes before scheduled measurement time, and left to stand to habituate to the environmental change, and after the animal was confirmed to become calm measurement was initiated. Avon Frey filament (bending force: 0.4, 0.6, 1, 2, 4, 6, 8, 15 g; starting from 2 g) was pressed vertically to the center of the sole of the left hind leg for about 6 seconds until the filament bent, and avoidance response (such as putting back the leg) was observed. In accordance with a Dixon's up-down method (Annu Rev Pharmacol Toxicol 1980; 20: 441-462), 50% response thresholds were calculated. Measurement was performed at four points of time: before drug administration on Day 14, and 30 minute, 90 minutes, and 180 minutes after the administration.
The results were represented as mean±standard deviation. Dunnett's multiple comparison test was used for statistical analysis, and a significance level of 5% was used for both sides in all cases.

Assay [5] relates to tremor in a harmaline animal model. The settings on record: Non Patent Literature 7; cited from earlier work.
Assay [6] relates to dystonia in the dt^sz model. The settings on record: Non Patent Literature 21; cited from earlier work.
The subject of assay [7] is human glioma cell line. Particulars: Non Patent Literature 34; cited from earlier work.
Where [8] appears, read: pre-administration, statement in words.

The values below come from patent US20200383959A1, “THERAPEUTIC AGENT CONTAINING PYRANODIPYRIDINE COMPOUND” (Eisai R&D Management Co., Ltd., priority 2017, published 2020).

One may read the IC50 as the concentration that inhibits the measured activity by half.

Consider `N#Cc1cc2c(cc1[N+](=O)[O-])=NC(=O)C(=O)N=2` [CNQX, 6-cyano-7-nitroquinoxaline-2,3-dione], for which the “Effect on fever and hyperalgesia to mechanical stimulation” value in assay [1] was “suppressed”.

In the case of `N#Cc1c(F)cccc1-c1cc2c(n(-c3cccnc3)c1=O)COc1cc(F)cnc1-2` [Compound (I), 2-fluoro-6-(3-fluoro-8-oxo-7-(pyridin-3-yl)-7,8-dihydro-6H-pyrano[3,2-b:5,4-b′]dipyridin-9-yl)benzonitrile], the IC50 in assay [2] was found to be 19.4 nM. Also, the Tremor score in assay [3] (1 mg/kg oral) was 1.3 ± 0.2; in assay [3] (2 mg/kg oral) it was 0.6 ± 0.3; in assay [3] (4 mg/kg oral), 0.4 ± 0.2. In assay [3] (setting [8]), the “Effect on tremor scores” value was “statistically significant reduction of tremor scores”. Moreover, the 50% response threshold in assay [4] (0.6 mg/kg oral, Day 14, 30 min) amounted to 7.3 ± 1.4 g; in assay [4] (0.6 mg/kg oral, Day 14, 90 min), 6.6 ± 1.4 g; in assay [4] (0.6 mg/kg oral, Day 14, 180 min), 5.2 ± 1.1 g; in assay [4] (0.6 mg/kg oral, Day 14, Pre (before drug administration)), 3.6 ± 0.4 g; in assay [4] (2 mg/kg oral, Day 14, 30 min), 9.5 ± 1.4 g; in assay [4] (2 mg/kg oral, Day 14, 90 min) it was 8.0 ± 1.3 g. Besides, the 50% response threshold was determined as 6.4 ± 1.1 g in assay [4] (2 mg/kg oral, Day 14, 180 min); 3.6 ± 0.3 g in assay [4] (2 mg/kg oral, Day 14, Pre (before drug administration)); 12.5 ± 1.1 g in assay [4] (6 mg/kg oral, Day 14, 30 min); 12.1 ± 1.5 g in assay [4] (6 mg/kg oral, Day 14, 90 min); 9.6 ± 1.4 g in assay [4] (6 mg/kg oral, Day 14, 180 min); 3.6 ± 0.4 g in assay [4] (6 mg/kg oral, Day 14, Pre (before drug administration)). Also, the Analgesic effect entry in assay [4] (setting [8]) is “Significant analgesic effect”.

Turning to `N#Cc1c(F)cccc1-c1cc2c(n(-c3cncnc3)c1=O)COc1cccnc1-2` [Compound (II), 2-fluoro-6-(8-oxo-7-(pyrimidin-5-yl)-7,8-dihydro-6H-pyrano[3,2-b:5,4-b′]dipyridin-9-yl)benzonitrile], the IC50 in assay [2] was 29 nM.

For `Cc1ncc(-n2c3c(cc(-c4cccc(F)c4C#N)c2=O)-c2ncccc2OC3)cn1` [Compound (III), 2-fluoro-6-(7-(2-methylpyrimidin-5-yl)-8-oxo-7,8-dihydro-6H-pyrano[3,2-b:5,4-b′]dipyridin-9-yl)benzonitrile], the IC50 in assay [2] is 44.3 nM.

With `NS(=O)(=O)c1cccc2c1c([N+](=O)[O-])cc1[nH]c(=O)c(=O)[nH]c12` [NBQX, 2,3-dioxo-6-nitro-1,2,3,4-tetrahydrobenzo[f]quinoxaline-7-sulfonamide], the Effect on tremor result in assay [5] is “suppresses tremor”. In addition, the Anti-dystonia action result in assay [6] was “anti-dystonia action”.

As to `O=C(O)Cn1c(=O)c(=O)[nH]c2cc([N+](=O)[O-])c(-n3ccnc3)cc21` [YM872], the Antitumor effect result in assay [7] is “antitumor effect”.
